The conditions of data set [1]: stated by Health Canada; cited from earlier work.
For data set [2] the following is noted: 400 mg CBD in corn oil, orally administered; cited from earlier work.
Data set [3] can be described thus: CBD solubility in carrier oils. The conditions noted are these: for solubility: oil or lipid. Type of data set: physicochemical.
Data set [4] can be described thus: Comparative human absorption cross-over study of CBD in compound of formula (IV) versus MCT oil. It counts as in vivo. On the procedure: 54 mg of cannabidiol (CBD) was dissolved in 2.5 g of compound of formula (IV) to give a clear solution. 1.16 g of the mixture (25 mg CBD) was encapsulated in two (2) hard gel capsules (size 00) for absorption study. A pilot absorption study was conducted in one volunteer. The two (2) hard gel capsules were swallowed with a glass of water by the volunteer fasted for 10 h. 200 ul of blood was collected by a lancet in a heparinised microtube at T=0, 1, 2, 3, 4, 5, 6, 7 and 8 h. The plasma was analyzed by HPLC/MS/MS to quantify the CBD. A comparative study was conducted with the same amount of CBD but with MCT oil (medium-chain triglycerides oil) instead of compound of formula (IV).

The nature of data set [5]: Human absorption study of composition 1 (cannabinoid extract containing CBDA in compound of formula IV and EPA fish oil). Type of data set: in vivo. Here is the method: Cannabis dried flowers (7 g) was extracted with ethanol (100 ml) for 72 h at room temperature. The flowers was filtered and the ethanol was removed under vacuum without heating to give the cannabinoid crude extract (1.9 g) containing 85% CBDA and 4% THCA. The crude extract (315 mg) was dissolved in a mixture of compound of formula (IV) and EPA concentrated ethyl ester fish oil (3.5 g) to give composition 1.
2.47 g of composition 1 was encapsulated in four (4) hard gel capsules (size 00) for absorption study. A pilot absorption study was conducted in one volunteer. The four (4) hard gel capsules were swallowed with a glass of water by the volunteer fasted for 10 h. 200 ul of blood was collected by a lancet in a heparinised microtube at T=0, 0.5, 1, 1.5, 2, 2.5, 3, 3.5, 4, 4.5, and 6.5 h. The plasma was analyzed by HPLC/MS/MS to quantify the CBDA.

For data set [6], the target named is T1, COX-2 (Homo sapiens, UniProt P35354).
T1 sequence (P35354 18-604): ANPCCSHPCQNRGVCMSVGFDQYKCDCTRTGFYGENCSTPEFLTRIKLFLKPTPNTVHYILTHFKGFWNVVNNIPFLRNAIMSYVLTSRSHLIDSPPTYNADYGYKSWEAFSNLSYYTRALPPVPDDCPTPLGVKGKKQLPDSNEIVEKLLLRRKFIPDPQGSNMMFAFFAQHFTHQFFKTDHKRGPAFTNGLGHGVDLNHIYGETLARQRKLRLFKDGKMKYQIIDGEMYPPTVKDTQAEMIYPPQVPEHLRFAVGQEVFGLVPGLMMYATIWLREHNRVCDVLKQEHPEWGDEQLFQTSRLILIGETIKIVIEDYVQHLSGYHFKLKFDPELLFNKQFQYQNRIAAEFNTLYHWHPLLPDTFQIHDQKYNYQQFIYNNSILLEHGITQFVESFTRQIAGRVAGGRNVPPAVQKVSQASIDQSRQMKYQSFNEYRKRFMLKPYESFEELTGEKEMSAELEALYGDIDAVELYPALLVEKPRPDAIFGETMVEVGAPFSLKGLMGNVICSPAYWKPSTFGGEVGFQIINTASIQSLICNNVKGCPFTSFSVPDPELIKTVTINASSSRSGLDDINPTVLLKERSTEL
The note with it: native acid form; cited from earlier work.

For data set [7] the following is noted: native acid form; cited from earlier work.

Converted amounts (≈) assume the structure as drawn.

Turning to `CCCCCc1cc(O)c2c(c1)OC(C)(C)[C@@H]1CCC(C)=C[C@@H]21` [THC, Tetrahydrocannabinol], in data set [1], the oral bioavailability was 10%.
What is called solubility is the concentration that dissolves in the medium under given conditions. Take `C=C(C)[C@@H]1CCC(C)=C[C@H]1c1c(O)cc(CCCCC)cc1O` [CBD, Cannabidiol]: the Cmax in plasma in data set [2] was 181 ng/mL. Further, the increase of solubility in data set [3] (formulation containing compound of formula IV and EPA fish oil versus corn oil) is recorded as 33%. In addition, the solubility was 400 mg/mL (≈ 1270 mM) in data set [3] (in a formulation containing compound of formula IV and EPA fish oil); ~300 mg/mL (≈ 954 mM) in data set [3] (in corn oil). Besides, the “absorption and bioavailability of CBD, compound of formula (IV) over MCT oil” value in data set [4] (25 mg CBD oral in hard gel capsules, one volunteer fasted 10 h, plasma 0-8 h, FIG. 1) is “superiority”. Moreover, the bioavailability in data set [4] (human, plasma, formulated in compound of formula IV, low dose of 25 mg, oral, read-out: CBD more bioavailable than in MCT oil) came to 200%.
By Cmax is commonly meant the peak of the concentration-time curve. `C=C(C)[C@@H]1CCC(C)=C[C@H]1c1c(O)cc(CCCCC)c(C(=O)O)c1O` [CBDA, Cannabidiolic Acid]: the “increase of the Cmax” value in data set [5] (170 mg CBDA in compound of formula IV versus 400 mg CBD in corn oil (half of the dose)) turned out to be 500%. The same compound gave a Cmax in data set [5] (human, plasma, cannabinoid extract containing 170 mg of CBDA in compound of formula IV, oral, one fasted volunteer) of 1000 ng/mL. For the same compound, the COX-2 inhibition result in data set [6] was “COX-2 inhibitor”.
Take `CCCCCc1cc2c(c(O)c1C(=O)O)[C@@H]1C=C(C)CC[C@H]1C(C)(C)O2` [THCA, Tetrahydrocannabinolic acid]: the psychotropic effect entry in data set [7] was “no psychotropic effect”.

The values above are taken from patent publication US12226390B2, “Cannabinoids compositions with polyunsaturated fatty acid monoglycerides, methods and uses thereof” (SCF PHARMA INC., priority 2019, dated 2025).
